Assays:
[1] = tested on: ATXN3 pre-mRNA (transcripts containing exon 4); assay: ATXN3 quantitative splicing assay (qPCR, E4E5 transcripts containing exon 4); assay type: cell-based; conditions: Homo sapiens; SK-N-MC cells, 24 h treatment, qPCR E4E5 primers/probe
Description: Human neuroblastoma SK-N-MC cells were plated in 384-well plates at 20,000 cells/well. Twenty-four hours after plating, cells were treated with compounds for 24 h at appropriate concentrations ranging from 30 μM to 0.6 nM (0.3% DMSO). Treated cells were lysed in 15 μL of lysis buffer, and cDNA was synthesized using the Fast Advanced Cells-to-Ct kit. Two μL of each cDNA was used in qPCR reactions to confirm the exon 4 skipped transcripts of ATXN3. A second set of primers/probe E4E5 was used to detect the transcripts containing exon 4. The third set of primers/probe E8E9 was used to detect total gene level of ATXN3. The qPCR reactions were prepared in 384-well plates in 10 μL volume, using TaqMan™ Fast Advanced Master Mix with primers and probes shown in the table below. Reactions were run in a Quant Studio 6 qPCR instrument with default settings.
The primers and probes are listed below in Table 5.

[2] = tested on: total ATXN3 protein; assay: ATXN3 total protein assay (MSD); assay type: cell-based, human; conditions: SK-N-MC cells, 48 h incubation
Description: Human neuroblastoma SK-N-MC cells were seeded at 10,000 cells/well in 384 well plates one day prior to compound treatment. The concentrations of compounds were tested at appropriate doses ranging from 30 μM to 0.6 nM. After incubation for 48 hours, the cells were lysed with 25 μL of lysis buffer containing protease inhibitors, and total ATXN3 protein levels were assessed by Mesoscale Discovery (MSD) assay developed with one pair of anti-ATXN3 antibodies. The capture and detect antibodies were raised in mouse and rabbit respectively. Anti-rabbit MSD-ST antibody was used for secondary antibody.
ATXN3 recombinant protein was used for standards. The readouts were captured with 35 μL of MSD read buffer and multi-array 384-well high binding plates.

With C[C@H](N)Cc1sc2c(NCc3cccs3)snc2c1-n1cccn1 [Compound 3, 7-[(S)-2-aminopropyl]-8-(1-pyrazolyl)-4-thenylamino-3,6-dithia-2-azabicyclo[3.3.0]octa-1,4,7-triene] the IC50 [1] was 10000 to 40000 nM and the IC50 [2] was 10000 to 40000 nM.
C#Cc1c(C[C@H](C)N)sc2c(NCc3cccs3)snc12 [Compound 4, 5-[(2S)-2-aminopropyl]-6-ethynyl-N-(thiophen-2-ylmethyl)thieno[3,2-c][1,2]thiazol-3-amine] gave an IC50 [1] of 101 to 500 nM and an IC50 [2] of 101 to 500 nM.
Work on C[C@H](N)Cc1sc2c(NCc3cccs3)snc2c1-c1ccncc1 [Compound 5, 7-[(S)-2-aminopropyl]-8-(4-pyridyl)-4-thenylamino-3,6-dithia-2-azabicyclo[3.3.0]octa-1,4,7-triene] yielded an IC50 [1] of 10000 to 40000 nM and an IC50 [2] of 10000 to 40000 nM.
With C[C@H](N)Cc1sc2c(NCc3cccs3)snc2c1-c1cccnc1 [Compound 6, 7-[(S)-2-aminopropyl]-8-(3-pyridyl)-4-thenylamino-3,6-dithia-2-azabicyclo[3.3.0]octa-1,4,7-triene] the IC50 [1] was 10000 to 40000 nM and the IC50 [2] was 10000 to 40000 nM.
C[C@H](N)Cc1sc2c(NCc3cccs3)snc2c1-c1ccccn1 [Compound 7, 5-[(2S)-2-aminopropyl]-6-(pyridin-2-yl)-N-(thiophen-2-ylmethyl)thieno[3,2-c][1,2]thiazol-3-amine] gave an IC50 [1] of 10000 to 40000 nM and an IC50 [2] of 10000 to 40000 nM.
C[C@H](N)Cc1sc2c(NCc3cccs3)snc2c1-n1ccnc1 [Compound 8, 5-[(2S)-2-aminopropyl]-6-(imidazol-1-yl)-N-(thiophen-2-ylmethyl)thieno[3,2-c][1,2]thiazol-3-amine] was tested, and the IC50 [1] was 10000 to 40000 nM and the IC50 [2] was 10000 to 40000 nM.
C[C@H](N)Cc1sc2c(NCc3ccco3)snc2c1-c1ccncc1 [Compound 10, 7-[(S)-2-aminopropyl]-4-(furfurylamino)-8-(4-pyridyl)-3,6-dithia-2-azabicyclo[3.3.0]octa-1,4,7-triene] was tested, and the IC50 [1] was 10000 to 40000 nM and the IC50 [2] was 10000 to 40000 nM.
With C#Cc1c(C[C@H](C)N)sc2c(NCc3ccco3)snc12 [Compound 11, 7-[(S)-2-aminopropyl]-8-ethynyl-4-(furfurylamino)-3,6-dithia-2-azabicyclo[3.3.0]octa-1,4,7-triene] the IC50 [1] was 0.01 to 100 nM and the IC50 [2] was 0.01 to 100 nM.
C[C@H](N)Cc1sc2c(NCc3ccco3)snc2c1-c1cccnc1 [Compound 12, 7-[(S)-2-aminopropyl]-4-(furfurylamino)-8-(3-pyridyl)-3,6-dithia-2-azabicyclo[3.3.0]octa-1,4,7-triene] was tested, and the IC50 [1] was 10000 to 40000 nM and the IC50 [2] was 10000 to 40000 nM.
C#Cc1c(C[C@@H](N)CO)sc2c(NCc3ccco3)snc12 [Compound 13, (R)-2-amino-3-{8-ethynyl-4-(furfurylamino)-3,6-dithia-2-azabicyclo[3.3.0]octa-1,4,7-trien-7-yl}-1-propanol] showed an IC50 [1] of 0.01 to 100 nM and an IC50 [2] of 0.01 to 100 nM.
C#Cc1c(C[C@@H](N)COC)sc2c(NCc3ccco3)snc12 [Compound 14, 7-[(R)-2-amino-3-methoxypropyl]-8-ethynyl-4-(furfurylamino)-3,6-dithia-2-azabicyclo[3.3.0]octa-1,4,7-triene] gave an IC50 [1] of 501 to 5000 nM and an IC50 [2] of 501 to 5000 nM.
C#Cc1c(C[C@@H](N)COC)sc2c(NCc3cccs3)snc12 [Compound 15, 7-[(R)-2-amino-3-methoxypropyl]-8-ethynyl-4-thenylamino-3,6-dithia-2-azabicyclo[3.3.0]octa-1,4,7-triene] gave an IC50 [1] of 501 to 5000 nM and an IC50 [2] of 501 to 5000 nM.
For C#Cc1c(C[C@@H](N)CO)sc2c(NCc3cccs3)snc12 [Compound 16, (R)-2-amino-3-(8-ethynyl-4-thenylamino-3,6-dithia-2-azabicyclo[3.3.0]octa-1,4,7-trien-7-yl)-1-propanol], the IC50 [1] was 0.01 to 100 nM and the IC50 [2] was 0.01 to 100 nM.
C#Cc1c(C[C@@H](N)CF)sc2c(NCc3cccs3)snc12 [Compound 17, 7-[(R)-2-amino-3-fluoropropyl]-8-ethynyl-4-thenylamino-3,6-dithia-2-azabicyclo[3.3.0]octa-1,4,7-triene] showed an IC50 [1] of 101 to 500 nM and an IC50 [2] of 501 to 5000 nM.
For C#Cc1c(C[C@@H](N)[C@H](C)F)sc2c(NCc3cccs3)snc12 [Compound 19, 5-[(2R,3S)-2-amino-3-fluorobutyl]-6-ethynyl-N-(thiophen-2-ylmethyl)thieno[3,2-c][1,2]thiazol-3-amine], the IC50 [1] was 101 to 500 nM and the IC50 [2] was 101 to 500 nM.
With C#Cc1c(C[C@@H](N)[C@H](C)F)sc2c(NCc3nccs3)snc12 [Compound 22, 7-[(2R,3S)-2-amino-3-fluorobutyl]-8-ethynyl-4-{[(1,3-thiazol-2-yl)methyl]amino}-3,6-dithia-2-azabicyclo[3.3.0]octa-1,4,7-triene] the IC50 [1] was 101 to 500 nM and the IC50 [2] was 0.01 to 100 nM.
C#Cc1c(C[C@@H](N)CF)sc2c(NCc3ccco3)snc12 [Compound 23, 7-[(R)-2-amino-3-fluoropropyl]-8-ethynyl-4-(furfurylamino)-3,6-dithia-2-azabicyclo[3.3.0]octa-1,4,7-triene] gave an IC50 [1] of 101 to 500 nM and an IC50 [2] of 501 to 5000 nM.
For C#Cc1c(C[C@@H](N)[C@@H](C)F)sc2c(NCc3ccco3)snc12 [Compound 24, 7-[(2R,3R)-2-amino-3-fluorobutyl]-8-ethynyl-4-(furfurylamino)-3,6-dithia-2-azabicyclo[3.3.0]octa-1,4,7-triene], the IC50 [1] was 101 to 500 nM and the IC50 [2] was 501 to 5000 nM.
C#Cc1c(C[C@@H](N)[C@H](C)F)sc2c(NCc3ccco3)snc12 [Compound 25, 7-[(2R,3S)-2-amino-3-fluorobutyl]-8-ethynyl-4-(furfurylamino)-3,6-dithia-2-azabicyclo[3.3.0]octa-1,4,7-triene] was tested, and the IC50 [1] was 101 to 500 nM and the IC50 [2] was 101 to 500 nM.
C#Cc1c(C[C@@H](N)COC)sc2c(NCc3ccccc3)snc12 [Compound 30, 7-[(R)-2-amino-3-methoxypropyl]-4-benzylamino-8-ethynyl-3,6-dithia-2-azabicyclo[3.3.0]octa-1,4,7-triene] showed an IC50 [1] of 10000 to 40000 nM and an IC50 [2] of 10000 to 40000 nM.
With C#Cc1c(C[C@@H](N)CC2CC2)sc2c(NCc3ccco3)snc12 [Compound 32, 7-[(S)-2-amino-3-cyclopropylpropyl]-8-ethynyl-4-(furfurylamino)-3,6-dithia-2-azabicyclo[3.3.0]octa-1,4,7-triene] the IC50 [1] was 101 to 500 nM and the IC50 [2] was 101 to 500 nM.
Work on C#Cc1c(C[C@@H](N)CC2CC2)sc2c(NCc3cccs3)snc12 [Compound 33, 7-[(S)-2-amino-3-cyclopropylpropyl]-8-ethynyl-4-thenylamino-3,6-dithia-2-azabicyclo[3.3.0]octa-1,4,7-triene] yielded an IC50 [1] of 501 to 5000 nM and an IC50 [2] of 501 to 5000 nM.
C#Cc1c(C[C@@H](N)COC2CC2)sc2c(NCc3cccs3)snc12 [Compound 34, 7-[(R)-2-amino-3-cyclopropoxypropyl]-8-ethynyl-4-thenylamino-3,6-dithia-2-azabicyclo[3.3.0]octa-1,4,7-triene] showed an IC50 [1] of 501 to 5000 nM and an IC50 [2] of 501 to 5000 nM.
For C#Cc1c(C(F)(F)[C@H](C)N)sc2c(NCc3cccs3)snc12 [Compound 35, 7-[(S)-2-amino-1,1-difluoropropyl]-8-ethynyl-4-thenylamino-3,6-dithia-2-azabicyclo[3.3.0]octa-1,4,7-triene], the IC50 [1] was 501 to 5000 nM and the IC50 [2] was 501 to 5000 nM.
Work on C#Cc1c(C[C@@H](N)C(F)F)sc2c(NCc3ccco3)snc12 [Compound 37, 7-[(R)-2-amino-3,3-difluoropropyl]-8-ethynyl-4-(furfurylamino)-3,6-dithia-2-azabicyclo[3.3.0]octa-1,4,7-triene] yielded an IC50 [1] of 501 to 5000 nM and an IC50 [2] of 501 to 5000 nM.
For C[C@H](N)Cc1sc2c(NCc3cccs3)snc2c1-c1ncco1 [Compound 40, 7-[(S)-2-aminopropyl]-8-(1,3-oxazol-2-yl)-4-thenylamino-3,6-dithia-2-azabicyclo[3.3.0]octa-1,4,7-triene], the IC50 [1] was 501 to 5000 nM and the IC50 [2] was 501 to 5000 nM.
Compound C[C@H](F)[C@H](N)Cc1sc2c(NCc3cccs3)snc2c1-c1ncco1 [Compound 41, 7-[(2R,3S)-2-amino-3-fluorobutyl]-8-(1,3-oxazol-2-yl)-4-thenylamino-3,6-dithia-2-azabicyclo[3.3.0]octa-1,4,7-triene] has an IC50 [1] of 501 to 5000 nM and an IC50 [2] of 501 to 5000 nM.

— patent publication US20250340571A1, “COMPOSITIONS USEFUL FOR MODULATING SPLICING” (Skyhawk Therapeutics, Inc., priority 2022, published 2025)
